From patent publication US9993478B2, “1-pyrazolyl-3-(4-((2-anilinopyrimidin-4-yl) oxy) napththalen-1-yl) ureas as P38 MAP knase inhibitors” (Respivert Ltd., priority 2011, dated 2018)

Test system: d-U937 cells
Assay: Cell viability: MTT assay
Type: cell-based, human
Conditions: 1 μg/mL
Method: Differentiated U937 cells were pre-incubated with each test compound (final concentration 1 μg/mL or 10 μg/mL in 200 μL media indicated below) under two protocols: the first for 4 hr in 5% FCS RPMI1640 media and the second in 10% FCS RPMI1640 media for 24 h. The supernatant was replaced with new media (200 μL) and MTT stock solution (10 μL, 5 mg/mL) was added to each well. After incubation for 1 hr the media were removed, DMSO (200 μL) was added to each well and the plates were shaken lightly for 1 hr prior to reading the absorbance at 550 nm. The percentage loss of cell viability was calculated for each well relative to vehicle (0.5% DMSO) treatment. Consequently an apparent increase in cell viability for drug treatment relative to vehicle is tabulated as a negative percentage.

| Compound | MTT Assay Cell viability at time point in d-U937 Cells 4 h | MTT Assay Cell viability at time point in d-U937 Cells 24 h |
| --- | --- | --- |
| COc1ccc(Nc2nccc(Oc3ccc(NC(=O)Nc4cc(C(C)(C)C)nn4-c4ccc(C)cc4)c4ccccc34)n2)cc1 [Example 17, 1-(3-(tert-butyl)-1-(p-tolyl)-1H-pyrazol-5-yl)-3-(4-((2-((4-methoxyphenyl)amino)pyrimidin-4-yl)oxy)naphthalen-1-yl)urea] | −ve (−ve and +ve indicate the value is below and above respectively, the no significant effect threshold defined as 30% inhibition at 1 μg/mL at the time point indicated) | −ve (−ve and +ve indicate the value is below and above respectively, the no significant effect threshold defined as 30% inhibition at 1 μg/mL at the time point indicated) |
| Cc1ccc(-n2nc(C(C)(C)C)cc2NC(=O)Nc2ccc(Oc3ccnc(Nc4ccc(Cl)cc4C)n3)c3ccccc23)cc1 [Example 18, 1-(3-(tert-butyl)-1-(p-tolyl)-1H-pyrazol-5-yl)-3-(4-((2-((4-chloro-2-methylphenyl)amino)pyrimidin-4-yl)oxy)naphthalen-1-yl)urea] | −ve (−ve and +ve indicate the value is below and above respectively, the no significant effect threshold defined as 30% inhibition at 1 μg/mL at the time point indicated) | −ve (−ve and +ve indicate the value is below and above respectively, the no significant effect threshold defined as 30% inhibition at 1 μg/mL at the time point indicated) |
| Cc1ccc(-n2nc(C(C)(C)C)cc2NC(=O)Nc2ccc(Oc3ccnc(Nc4ccccc4Cl)n3)c3ccccc23)cc1 [Example 19, 1-(3-(tert-butyl)-1-(p-tolyl)-1H-pyrazol-5-yl)-3-(4-((2-((2-chlorophenyl)amino)pyrimidin-4-yl)oxy)naphthalen-1-yl)urea] | −ve (−ve and +ve indicate the value is below and above respectively, the no significant effect threshold defined as 30% inhibition at 1 μg/mL at the time point indicated) | −ve (−ve and +ve indicate the value is below and above respectively, the no significant effect threshold defined as 30% inhibition at 1 μg/mL at the time point indicated) |
| Cc1ccc(-n2nc(C(C)(C)C)cc2NC(=O)Nc2ccc(Oc3ccnc(Nc4ccccc4C(C)C)n3)c3ccccc23)cc1 [Example 20, 1-(3-(tert-butyl)-1-(p-tolyl)-1H-pyrazol-5-yl)-3-(4-((2-((2-isopropylphenyl)amino)pyrimidin-4-yl)oxy)naphthalen-1-yl)urea] | −ve (−ve and +ve indicate the value is below and above respectively, the no significant effect threshold defined as 30% inhibition at 1 μg/mL at the time point indicated) | −ve (−ve and +ve indicate the value is below and above respectively, the no significant effect threshold defined as 30% inhibition at 1 μg/mL at the time point indicated) |
| Cc1ccc(-n2nc(C(C)(C)C)cc2NC(=O)Nc2ccc(Oc3ccnc(Nc4ccccc4C)n3)c3ccccc23)cc1 [Example 21, 1-(3-(tert-butyl)-1-(p-tolyl)-1H-pyrazol-5-yl)-3-(4-((2-(o-tolylamino)pyrimidin-4-yl)oxy)naphthalen-1-yl)urea] | −ve (−ve and +ve indicate the value is below and above respectively, the no significant effect threshold defined as 30% inhibition at 1 μg/mL at the time point indicated) | −ve (−ve and +ve indicate the value is below and above respectively, the no significant effect threshold defined as 30% inhibition at 1 μg/mL at the time point indicated) |
| CCOc1ccc(Nc2nccc(Oc3ccc(NC(=O)Nc4cc(C(C)(C)C)nn4-c4ccc(C)cc4)c4ccccc34)n2)cc1 [Example 22, 1-(3-(tert-butyl)-1-(p-tolyl)-1H-pyrazol-5-yl)-3-(4-((2-((4-ethoxyphenyl)amino)pyrimidin-4-yl)oxy)naphthalen-1-yl)urea] | −ve (−ve and +ve indicate the value is below and above respectively, the no significant effect threshold defined as 30% inhibition at 1 μg/mL at the time point indicated) | −ve (−ve and +ve indicate the value is below and above respectively, the no significant effect threshold defined as 30% inhibition at 1 μg/mL at the time point indicated) |
| Cc1ccc(-n2nc(C(C)(C)C)cc2NC(=O)Nc2ccc(Oc3ccnc(Nc4ccc(F)cc4)n3)c3ccccc23)cc1 [Example 23, 1-(3-(tert-butyl)-1-(p-tolyl)-1H-pyrazol-5-yl)-3-(4-((2-((4-fluorophenyl)amino)pyrimidin-4-yl)oxy)naphthalen-1-yl)urea] | −ve (−ve and +ve indicate the value is below and above respectively, the no significant effect threshold defined as 30% inhibition at 1 μg/mL at the time point indicated) | −ve (−ve and +ve indicate the value is below and above respectively, the no significant effect threshold defined as 30% inhibition at 1 μg/mL at the time point indicated) |
| Cc1ccc(-n2nc(C(C)(C)C)cc2NC(=O)Nc2ccc(Oc3ccnc(Nc4ccc(O)cc4C)n3)c3ccccc23)cc1 [Example 24, 1-(3-(tert-butyl)-1-(p-tolyl)-1H-pyrazol-5-yl)-3-(4-((2-((4-hydroxy-2-methylphenyl)amino)pyrimidin-4-yl)oxy)naphthalen-1-yl)urea] | −ve (−ve and +ve indicate the value is below and above respectively, the no significant effect threshold defined as 30% inhibition at 1 μg/mL at the time point indicated) | −ve (−ve and +ve indicate the value is below and above respectively, the no significant effect threshold defined as 30% inhibition at 1 μg/mL at the time point indicated) |
| COc1cc(Nc2nccc(Oc3ccc(NC(=O)Nc4cc(C(C)(C)C)nn4-c4ccc(C)cc4)c4ccccc34)n2)ccc1O [Example 25, 1-(3-(tert-butyl)-1-(p-tolyl)-1H-pyrazol-5-yl)-3-(4-((2-((4-hydroxy-3-methoxyphenyl)amino)pyrimidin-4-yl)oxy)naphthalen-1-yl)urea] | −ve (−ve and +ve indicate the value is below and above respectively, the no significant effect threshold defined as 30% inhibition at 1 μg/mL at the time point indicated) | −ve (−ve and +ve indicate the value is below and above respectively, the no significant effect threshold defined as 30% inhibition at 1 μg/mL at the time point indicated) |
| Cc1ccc(-n2nc(C(C)(C)C)cc2NC(=O)Nc2ccc(Oc3ccnc(Nc4ccc(C)c(O)c4)n3)c3ccccc23)cc1 [Example 26, 1-(3-(tert-butyl)-1-(p-tolyl)-1H-pyrazol-5-yl)-3-(4-((2-((3-hydroxy-4-methylphenyl)amino)pyrimidin-4-yl)oxy)naphthalen-1-yl)urea] | −ve (−ve and +ve indicate the value is below and above respectively, the no significant effect threshold defined as 30% inhibition at 1 μg/mL at the time point indicated) | −ve (−ve and +ve indicate the value is below and above respectively, the no significant effect threshold defined as 30% inhibition at 1 μg/mL at the time point indicated) |
